Measured values taken from patent US8134006B2, “Dialkylphenyl compounds having β2 adrenergic receptor agonist and muscarinic receptor antagonist activity” (Theravance, Inc., priority 2006, dated 2012).
pKi: −log10 of the molar value.

Legend:
[1] = test system: acetylcholine or histamine bronchoconstriction; assay: Plethysmograph guinea pig assay for bronchoprotective efficacy and duration; details: doses ranging from 3 μg/mL to 300 μg/mL, inhalation
Procedure: In this assay, the bronchoprotective efficacy and duration of test compounds was determined using a guinea pig assay.
Groups of 6 male guinea pigs (Duncan-Hartley (HsdPoc:DH) Harlan, Madison, Wis.) weighing between 250 and 350 g were individually identified by cage cards. Throughout the study, animals were allowed access to food and water ad libitum. Test compounds were administered via inhalation over 10 minutes in a whole-body exposure dosing chamber (R&S Molds, San Carlos, Calif.). The dosing chambers were arranged so that an aerosol was simultaneously delivered to 6 individual chambers from a central manifold. Guinea pigs were exposed to an aerosol of a test compound or vehicle (WFI). […] The gas flow through the nebulizer at this operating pressure was approximately 3 L per minute. […] This value was measured gravimetrically by comparing pre- and post-nebulization weights of the filled nebulizer. […]
The pulmonary evaluation was initiated after determining that baseline values were within the range of 0.3 to 0.9 mL per cm H2O for compliance and within the range of 0.1 to 0.199 cm H2O per mL per second for resistance. […] The changes in volume over time that occurred within the plethysmograph with each breath were measured via a Buxco pressure transducer. By integrating this signal over time, a measurement of flow was calculated for each breth. […]

[2] = target: T1, human β2 adrenergic receptor (Homo sapiens, UniProt P07550); assay: Whole-cell cAMP Flashplate assay with lung epithelial cell line (BEAS-2B) endogenously expressing β2 receptor; format: cell-based; details: BEAS-2B cells, compared with full β2 agonist isoproterenol (1.0)
T1 construct: a cell line expressing endogenous levels of the β2 adrenergic receptor; host or cells: BEAS-2B human lung epithelial cell line
Procedure: In this assay, the agonist potency and intrinsic activity of a test compound were determined using a cell line expressing endogenous levels of the β2 adrenergic receptor.
On the day of the assay, cells were rinsed with PBS, lifted by scraping with 5 mM EDTA in PBS, and counted. Cells were pelleted by centrifugation at 1,000 rpm and re-suspended in stimulation buffer pre-warmed to 37° C. at a final concentration of 600,000 cells/mL. Cells were used at a final concentration of 100,000 to 120,000 cells/well in this assay. […] Plates were sealed, incubated over night at 4° C. and counted the next morning in a Topcount scintillation counter (Packard BioScience Co., Meriden, Conn.). […] Data were analyzed by nonlinear regression analysis with the GraphPad Prism Software package (GraphPad Software, Inc., San Diego, Calif.) using the 4-parameter model for sigmoidal dose-response.

[3] = test system: bronchoconstriction; assay: Einthoven assay, duration of bronchoprotection; details: inhalation
Procedure: (§1) In this assay, the bronchoprotective efficacy and duration of test compounds were determined using guinea pigs. […] In this assay, changes in ventilation pressure serve as a surrogate measure of airway resistance. Following pre-treatment with a test compound, muscarinic antagonist potency was determined using bronchoconstrictor dose-response curves to intravenous methacholine in the presence of propranolol. Similarly, β2 agonist bronchoprotective potency was determined using histamine. Combined bronchoprotective potency was determined using methacholine in the absence of propranolol.
(§2) The assay was conducted using male Duncan-Hartley guinea pigs (Harlan, Indianapolis, Ind.), weighing between 250 and 400 g. A test compound or vehicle (i.e., sterile water) was dosed by inhalation (IH) over a 10 minute time period in a whole body exposure dosing chamber (R+S Molds, San Carlos, Calif.) using 5 mL of dosing solution. […] Pulmonary function was evaluated at various time points after inhalation dosing.
(§3) The trachea was then dissected free and cannulated with a 14G needle (#NE-014, Small Parts, Miami Lakes, Fla.). […] Body temperature was maintained at 37° C. using a heating pad. […] The changes in VP were recorded on a Biopac Windows data collection interface. […] Changes in VP were recorded using the Acknowledge Data Collection Software (Santa Barbara, Calif.). […]
(§4) Change in VP was measured in cm of water. […]

[4] = test system: methacholine-induced bronchoconstriction; assay: Einthoven assay, bronchoprotective efficacy against methacholine; details: 1.5 hours post-dose, inhalation
Procedure: as §1, §2, §3, §4

[5] = target: cM5 receptor (UniProt Q5IS53); assay: Blockade of agonist-mediated calcium release via FLIPR; format: cell-based; details: CHO cells expressing cM5, read-out: Kobs
Procedure: In this functional assay, the functional potency of a test compound as an antagonist of hM1, hM3 and […] receptors was determined by measuring the ability of the test compound to inhibit agonist-mediated increases in intracellular calcium.
CHO cells stably expressing the receptors were seeded into 96-well FLIPR plates the night before the assay was done. Seeded cells were washed twice with FLIPR buffer (10 mM HEPES, pH 7.4, 2 mM calcium chloride, 2.5 mM probenecid in Hank's Buffered Salt Solution (HBSS) without calcium and magnesium) using Cellwash (MTX Labsystems, Inc.) to remove growth media. After washing, each well contained 50 μL of FLIPR buffer. […]
The dose-dependent stimulation of intracellular Ca^2+ release for oxotremorine was determined so that the test compound could be measured against oxotremorine stimulation at an EC90 concentration. […]
The parameters used for the FLIPR were: exposure length of 0.4 seconds, laser strength of 0.5 watts, excitation wavelength of 488 nm, and emission wavelength of 550 nm. Baseline was determined by measuring the change in fluorescence for 10 seconds prior to addition of oxotremorine. Following oxotremorine stimulation, the FLIPR continuously measured the change of fluorescence every 0.5 to 1 second for 1.5 minutes to capture the maximum fluorescence change. […]

[6] = test system: histamine-induced bronchoconstriction; assay: Einthoven assay, bronchoprotective efficacy against histamine; details: 1.5 hours post-dose, inhalation
Procedure: as §1, §2, §3, §4

cM5 receptor, sequence (Q5IS53 whole entry): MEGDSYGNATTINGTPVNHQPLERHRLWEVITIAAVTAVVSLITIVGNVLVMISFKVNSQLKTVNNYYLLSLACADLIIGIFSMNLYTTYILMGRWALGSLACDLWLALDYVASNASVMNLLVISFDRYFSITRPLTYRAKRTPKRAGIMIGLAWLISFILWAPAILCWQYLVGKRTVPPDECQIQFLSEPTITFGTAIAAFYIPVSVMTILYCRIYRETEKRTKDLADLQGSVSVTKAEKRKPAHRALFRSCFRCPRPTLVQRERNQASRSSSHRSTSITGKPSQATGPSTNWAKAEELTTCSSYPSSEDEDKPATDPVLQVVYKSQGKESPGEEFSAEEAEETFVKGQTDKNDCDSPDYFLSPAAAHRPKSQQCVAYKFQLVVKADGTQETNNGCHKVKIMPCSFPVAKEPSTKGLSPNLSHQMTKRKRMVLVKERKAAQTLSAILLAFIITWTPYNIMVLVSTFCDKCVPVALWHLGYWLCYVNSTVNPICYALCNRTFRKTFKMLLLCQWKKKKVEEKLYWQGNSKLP
T1 sequence (P07550 whole entry): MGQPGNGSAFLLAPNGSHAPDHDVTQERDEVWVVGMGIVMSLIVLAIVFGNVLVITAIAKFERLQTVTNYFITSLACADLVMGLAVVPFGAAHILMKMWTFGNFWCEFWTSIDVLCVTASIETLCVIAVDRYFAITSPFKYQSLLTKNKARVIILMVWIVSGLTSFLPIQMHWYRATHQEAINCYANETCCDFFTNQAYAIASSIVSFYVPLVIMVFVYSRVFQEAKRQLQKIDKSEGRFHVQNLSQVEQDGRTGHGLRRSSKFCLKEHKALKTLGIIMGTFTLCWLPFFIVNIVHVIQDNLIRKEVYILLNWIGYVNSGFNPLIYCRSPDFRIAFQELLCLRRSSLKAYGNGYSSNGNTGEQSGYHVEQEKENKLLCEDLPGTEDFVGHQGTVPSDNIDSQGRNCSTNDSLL

## O=CNc1cc([C@@H](O)CNCc2ccc(NC(=O)CCN3CCC(OC(=O)Nc4ccccc4-c4ccccc4)CC3)cc2)ccc1O [compound 50]
[1]
  bronchoprotection at 24 hours post-dose: no significant bronchoprotection

## Cc1cc(NC(=O)CCN2CCC(OC(=O)Nc3ccccc3-c3ccccc3)CC2)c(C)cc1CNC[C@H](O)c1ccc(O)c(NC=O)c1 [compound IIa, biphenyl-2-ylcarbamic acid 1-[2-(4-{[(R)-2-(3-formylamino-4-hydroxyphenyl)-2-hydroxyethylamino]methyl}-2,5-dimethylphenylcarbamoyl)ethyl]piperidin-4-yl ester]
[2]
  intrinsic activity: greater than 0.3
[3]; single sub-maximal dose 100 μg/mL
  duration of significant bronchoprotection: up to 72 hours
[4]
  ID50: less than 50 μg/mL
[5]
  pKi: > 8.00
[6]
  ID50: less than 50 μg/mL

## C[N+]1(C)[C@@H]2C[C@@H](OC(=O)C(O)(c3cccs3)c3cccs3)C[C@H]1[C@@H]1O[C@@H]12 [tiotropium, reference compound]
[3]; 10 μg/mL
  duration of significant bronchoprotection: greater than 72 hours
